Experimental findings from US9221809B2 (MERCK SHARP & DOHME CORP., priority 2011, dated 2015) are described below.

Counter-ions that a name gives are not always drawn.

The first test deals with IRAK4 (Homo sapiens (Human), UniProt Q9NWZ3). As to the kind of experiment: IRAK4 kinase activity, IMAP fluorescence polarization assay. In kind it is biochemical. The settings on record: 100 μM ATP, 0.5 nM GST tagged IRAK4; read-out: IRAK4 IC50. The procedure, abridged: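 GST-tagged IRAK4 at 0.5 nM phosphorylates 100 nM fluorescent peptide substrate with 100 μM ATP in pH 7.2 Tris buffer containing MgCl2, DTT and Tween 20, 30 min at 25 °C. Reaction stopped with IMAP binding reagent; phosphorylation read as increased fluorescence polarization.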
Chain of IRAK4 (Q9NWZ3 whole entry): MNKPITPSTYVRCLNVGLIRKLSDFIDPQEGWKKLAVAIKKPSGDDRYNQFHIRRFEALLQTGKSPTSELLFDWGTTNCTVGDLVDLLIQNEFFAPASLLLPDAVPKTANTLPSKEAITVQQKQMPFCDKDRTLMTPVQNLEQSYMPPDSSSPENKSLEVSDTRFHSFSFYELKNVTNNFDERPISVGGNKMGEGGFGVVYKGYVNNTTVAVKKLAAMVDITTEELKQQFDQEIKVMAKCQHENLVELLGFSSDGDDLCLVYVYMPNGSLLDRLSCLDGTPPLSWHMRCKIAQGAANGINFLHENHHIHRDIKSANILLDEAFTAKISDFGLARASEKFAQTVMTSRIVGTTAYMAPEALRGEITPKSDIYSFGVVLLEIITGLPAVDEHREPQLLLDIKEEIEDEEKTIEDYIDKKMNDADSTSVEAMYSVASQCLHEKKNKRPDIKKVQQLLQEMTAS
(In general: Polarisation of emitted light reports the rotation of a fluorescent probe.)
As for `O=c1[nH]c(N2CCOCC2)nc(N[C@@H]2CCCNC2)c1-c1nccs1` [Example 101, (R)-2-morpholino-6-(piperidin-3-ylamino)-5-(thiazol-2-yl)pyrimidin-4(3H)-one.HCl], the IC50 turned out to be 1830 nM. On the same count and under the same terms, the figure for `Cc1cnc(-c2c(N[C@@H]3CCCNC3)nc(N3CCOCC3)[nH]c2=O)s1` [Example 102, (R)-5-(5-methylthiazol-2-yl)-2-morpholino-6-(piperidin-3-ylamino)pyrimidin-4(3H)-one.HCl] is 1270 nM. The same measure, in the same setting: the result for `O=c1[nH]c(N2CCOCC2)nc(N[C@@H]2CCCNC2)c1-c1nc(-c2ccc(OC(F)(F)F)cc2)cs1` [Example 103, (R)-2-morpholino-6-(piperidin-3-ylamino)-5-(4-(4-(trifluoromethoxy)phenyl)thiazol-2-yl)pyrimidin-4(3H)-one.HCl] reads 2250 nM. The same measure, in the same setting: the result for `O=c1[nH]c(N2CCOCC2)nc(N[C@@H]2CCCCNC2)c1-c1nc2ccccc2s1` [Example 104, (R)-6-(azepan-3-ylamino)-5-(benzo[d]thiazol-2-yl)-2-morpholinopyrimidin-4(3H)-one.HCl] reads 79 nM; that for `O=c1[nH]c(N2CCOCC2)nc(N[C@H]2CNC[C@H](O)C2)c1-c1nc2ccccc2s1` [Example 105, 5-(benzo[d]thiazol-2-yl)-6-(((3R,5R)-5-hydroxypiperidin-3-yl)amino)-2-morpholinopyrimidin-4(3H)-one.HCl], 85 nM. With `CC1CCC(Nc2nc(N3CCOCC3)[nH]c(=O)c2-c2ccc3ccccc3n2)CN1` (stereo not drawn) [Example 107, 6-((6-methylpiperidin-3-yl)amino)-2-morpholino-5-(quinolin-2-yl)pyrimidin-4(3H)-one.HCl], the IC50 came out at 91 nM.

For the molecule `Cc1cccc(-c2c(N[C@@H]3CCCNC3)nc(N3CCOCC3)[nH]c2=O)n1` [Example 109, (R)-5-(6-methylpyridin-2-yl)-2-morpholino-6-(piperidin-3-ylamino)pyrimidin-4(3H)-one], the IC50 is 1470 nM. As to `Cc1ccc(-c2c(N[C@@H]3CCCNC3)nc(N3CCOCC3)[nH]c2=O)nc1` [Example 110, (R)-5-(5-methylpyridin-2-yl)-2-morpholino-6-(piperidin-3-ylamino)pyrimidin-4(3H)-one], the half-maximal inhibitory concentration (IC50) is 872 nM. Same read-out and setting: the result for `O=c1[nH]c(N2CCOCC2)nc(N[C@@H]2CCCNC2)c1-c1nc2c(C3CC3)nccc2s1` [Example 111, (R)-5-(4-cyclopropylthiazolo[4,5-c]pyridin-2-yl)-2-morpholino-6-(piperidin-3-ylamino)pyrimidin-4(3H)-one.HCl] reads 9 nM; that for `O=c1[nH]c(N2CCOCC2)nc(N[C@@H]2CCCNC2)c1-c1nc2ccc(F)cc2s1` [Example 112, (R)-5-(6-fluorobenzo[d]thiazol-2-yl)-2-morpholino-6-(piperidin-3-ylamino)pyrimidin-4(3H)-one.HCl], 46 nM; that for `O=c1[nH]c(N2CCOCC2)nc(N[C@@H]2CCCNC2)c1-c1nc2cnccc2s1` [Example 113, (R)-2-morpholino-6-(piperidin-3-ylamino)-5-(thiazolo[4,5-c]pyridin-2-yl)pyrimidin-4(3H)-one.HCl], 12 nM.

`O=c1[nH]c(N2CCCC2)nc(N[C@@H]2CCCNC2)c1-c1ccc2ccccc2n1` [Example 114, (R)-6-(piperidin-3-ylamino)-2-(pyrrolidin-1-yl)-5-(quinolin-2-yl)pyrimidin-4(3H)-one.HCl]: the IC50 worked out at 24 nM. Same read-out and setting: the figure for `O=c1[nH]c(N2CCCCC2)nc(N[C@@H]2CCCNC2)c1-c1ccc2ccccc2n1` [Example 115, (R)-2-(piperidin-1-yl)-6-(piperidin-3-ylamino)-5-(quinolin-2-yl)pyrimidin-4(3H)-one.HCl] is 54 nM; for `CN1CCN(c2nc(N[C@@H]3CCCNC3)c(-c3ccc4ccccc4n3)c(=O)[nH]2)CC1` [Example 116, (R)-2-(4-methylpiperazin-1-yl)-6-(piperidin-3-ylamino)-5-(quinolin-2-yl)pyrimidin-4(3H)-one.HCl] it is 97 nM; for `O=c1[nH]c(N2CCCCC2)nc(N[C@@H]2CCCNC2)c1-c1nc2c(C3CC3)nccc2s1` [Example 117, (R)-5-(4-cyclopropylthiazolo[4,5-c]pyridin-2-yl)-2-(piperidin-1-yl)-6-(piperidin-3-ylamino)pyrimidin-4(3H)-one.HCl] it is 8.6 nM. As for `O=c1[nH]c(N2CCCC2)nc(N[C@@H]2CCCNC2)c1-c1nc2c(C3CC3)nccc2s1` [Example 118, (R)-5-(4-cyclopropylthiazolo[4,5-c]pyridin-2-yl)-6-(piperidin-3-ylamino)-2-(pyrrolidin-1-yl)pyrimidin-4(3H)-one.HCl], the IC50 was found to be 14 nM.

Consider `CN1CCN(c2nc(N[C@@H]3CCCNC3)c(-c3nc4c(C5CC5)nccc4s3)c(=O)[nH]2)CC1` [Example 120, (R)-5-(4-cyclopropylthiazolo[4,5-c]pyridin-2-yl)-2-(4-methylpiperazin-1-yl)-6-(piperidin-3-ylamino)pyrimidin-4(3H)-one.HCl], for which the IC50 was determined as 30 nM.

The test is the same for the next values; noted with them: 100 μM ATP; read-out: IRAK4 IC50.
As to `O=c1[nH]c(N2CCOCC2CO)nc(N[C@@H]2CCCNC2)c1-c1nc2ccccc2s1` (stereo partly drawn) [Example 125, 5-(benzo[d]thiazol-2-yl)-2-(3-(hydroxymethyl)morpholino)-6-((R)-piperidin-3-ylamino)pyrimidin-4(3H)-one], the IC50 was found to be 864 nM. With `CC1CN(c2nc(N[C@@H]3CCCNC3)c(-c3nc4ccccc4s3)c(=O)[nH]2)CCO1` (stereo partly drawn) [Example 126, 5-(benzo[d]thiazol-2-yl)-2-(2-methylmorpholino)-6-((R)-piperidin-3-ylamino)pyrimidin-4(3H)-one], the IC50 came out at 97 nM. The same measure, in the same setting: the figure for `C[C@@H]1COCCN1c1nc(N[C@@H]2CCCNC2)c(-c2nc3ccccc3s2)c(=O)[nH]1` [Example 127] is 1690 nM; for `C[C@H]1COCCN1c1nc(N[C@@H]2CCCNC2)c(-c2nc3ccccc3s2)c(=O)[nH]1` [Example 128] it is 431 nM. The same measure, in the same setting: the figure for `O=c1[nH]c(N2CCOC(CCO)C2)nc(N[C@@H]2CCCNC2)c1-c1nc2ccccc2s1` (stereo partly drawn) [Example 129, 5-(benzo[d]thiazol-2-yl)-2-(2-(2-hydroxyethyl)morpholino)-6-((R)-piperidin-3-ylamino)pyrimidin-4(3H)-one] is 57 nM; for `O=c1[nH]c(N2CCOC(C(F)(F)F)C2)nc(N[C@@H]2CCCNC2)c1-c1nc2ccccc2s1` (stereo partly drawn) [Example 130, 5-(benzo[d]thiazol-2-yl)-6-((R)-piperidin-3-ylamino)-2-(2-(trifluoromethyl)morpholino)pyrimidin-4(3H)-one] it is 201 nM. Regarding `CC1(C)CN(c2nc(N[C@@H]3CCCNC3)c(-c3nc4ccccc4s3)c(=O)[nH]2)CCO1` [Example 131, (R)-5-(benzo[d]thiazol-2-yl)-2-(2,2-dimethylmorpholino)-6-(piperidin-3-ylamino)pyrimidin-4(3H)-one], the IC50 was determined as 145 nM. Still for that read-out and setting: the result for `O=c1[nH]c(N2CCN(c3ccccn3)CC2)nc(N[C@@H]2CCCNC2)c1-c1nc2ccccc2s1` [Example 132, (R)-5-(benzo[d]thiazol-2-yl)-6-(piperidin-3-ylamino)-2-(4-(pyridin-2-yl)piperazin-1-yl)pyrimidin-4(3H)-one] reads 8 nM; that for `O=c1[nH]c(N2CCN(c3ncc(C(F)(F)F)cc3Cl)CC2)nc(N[C@@H]2CCCNC2)c1-c1nc2ccccc2s1` [Example 133, (R)-5-(benzo[d]thiazol-2-yl)-2-(4-(3-chloro-5-(trifluoromethyl)pyridin-2-yl)piperazin-1-yl)-6-(piperidin-3-ylamino)pyrimidin-4(3H)-one], 17 nM. Still for that read-out and setting: the figure for `O=c1[nH]c(N2CCN(c3cnccn3)CC2)nc(N[C@@H]2CCCNC2)c1-c1nc2ccccc2s1` [Example 134, (R)-5-(benzo[d]thiazol-2-yl)-6-(piperidin-3-ylamino)-2-(4-(pyrazin-2-yl)piperazin-1-yl)pyrimidin-4(3H)-one] is 8 nM. The same measure, in the same setting: the figure for `O=c1[nH]c(N2CCN(c3ccc(C(F)(F)F)cn3)CC2)nc(N[C@@H]2CCCNC2)c1-c1nc2ccccc2s1` [Example 135, (R)-5-(benzo[d]thiazol-2-yl)-6-(piperidin-3-ylamino)-2-(4-(5-(trifluoromethyl)pyridin-2-yl)piperazin-1-yl)pyrimidin-4(3H)-one] is 11 nM; for `O=c1[nH]c(N2CCN(c3ncccn3)CC2)nc(N[C@@H]2CCCNC2)c1-c1nc2ccccc2s1` [Example 136, (R)-5-(benzo[d]thiazol-2-yl)-6-(piperidin-3-ylamino)-2-(4-(pyrimidin-2-yl)piperazin-1-yl)pyrimidin-4(3H)-one] it is 10 nM; for `O=c1[nH]c(N2CCN(c3cccc(Cl)n3)CC2)nc(N[C@@H]2CCCNC2)c1-c1nc2ccccc2s1` [Example 137, (R)-5-(benzo[d]thiazol-2-yl)-2-(4-(6-chloropyridin-2-yl)piperazin-1-yl)-6-(piperidin-3-ylamino)pyrimidin-4(3H)-one] it is 25 nM. `O=c1[nH]c(N2CCN(c3cccnc3)CC2)nc(N[C@@H]2CCCNC2)c1-c1nc2ccccc2s1` [Example 138, (R)-5-(benzo[d]thiazol-2-yl)-6-(piperidin-3-ylamino)-2-(4-(pyridin-3-yl)piperazin-1-yl)pyrimidin-4(3H)-one]: the IC50 turned out to be 6 nM. Still for that read-out and setting: the figure for `Cc1nonc1N1CCN(c2nc(N[C@@H]3CCCNC3)c(-c3nc4ccccc4s3)c(=O)[nH]2)CC1` [Example 139, (R)-5-(benzo[d]thiazol-2-yl)-2-(4-(4-methyl-1,2,5-oxadiazol-3-yl)piperazin-1-yl)-6-(piperidin-3-ylamino)pyrimidin-4(3H)-one] is 15 nM. Still for that read-out and setting: the result for `O=c1[nH]c(N2CCn3cc(C(F)(F)F)nc3C2)nc(N[C@@H]2CCCNC2)c1-c1nc2ccccc2s1` [Example 140, (R)-5-(benzo[d]thiazol-2-yl)-6-(piperidin-3-ylamino)-2-(2-(trifluoromethyl)-5,6-dihydroimidazo[1,2-a]pyrazin-7(8H)-yl)pyrimidin-4(3H)-one] reads 113 nM.

In general, IC50 refers to the midpoint of a concentration-inhibition curve.
